Laboratory results reported in patent US20180163056A1, “HYDROPHILIC CURABLE COMPOSITIONS” (MITSUI CHEMICALS, INC., priority 2013, published 2018).

Assay: Measurement of solubility with respect to cyclohexane:toluene=5:1 (by weight)
Assay type: physicochemical
Details: 25° C., stirred 1 hour, 0.45 μm filter
Experimental: 1.0 g of hydrophilic compound SPA-K, namely, potassium 3-acryloyloxypropylsulfonate (or potassium 3-sulfopropylacrylate salt) as a constituent for the concentration-gradient films according to the invention was added to 10.0 g of a mixture solution including 8.3 g of cyclohexane and 1.7 g of toluene. The mixture was stirred at 25° C. for 1 hour and was filtered through a 0.45 μm membrane filter.
The filtrate was placed onto an evaporation dish, heated at 150° C. for 2 hours, and cooled to room temperature. The weight of the residue was measured.
Lastly, the solubility with respect to cyclohexane:toluene=5:1 (by weight) was calculated using the following equation.
Solubility (wt %)=Weight of residue (g)/{10.0 (g)+Weight of residue (g)}×100

SMILES: C=CC(=O)OCCCS(=O)(=O)[O-].[K+] [SPA-K, potassium 3-acryloyloxypropylsulfonate]
- Solubility with respect to cyclohexane:toluene=5:1 (by weight): < 1 wt %
